Where a name gives a salt, the structure may show the parent alone. Read-outs that look alike come from different tables or passages of the source.
Columns and labels:
[1] = test system: P. falciparum 3D7 parasites; assay: P. falciparum growth inhibition assay, 1-cycle (72 h treatment), SYBR DNA staining (library screen at 2 μg/mL and dose-response); type: cell-based, Plasmodium falciparum; conditions: for activity at 2 µg/mL: Plasmodium falciparum
[2] = test system: P. falciparum 3D7 parasites; assay: P. falciparum growth inhibition assay, 2-cycle (120 h treatment), delayed-death screen and dose-response; type: cell-based, Plasmodium falciparum; conditions: for activity at 2 µg/mL: Plasmodium falciparum
[3] = test system: T. gondii RH strain (RH-Tub-eYFP) tachyzoites; assay: microbe, parasite or virus in culture; type: cell-based, Toxoplasma gondii; conditions: 72 h, 72 h; for percent parasite growth at 2 µg/mL: Toxoplasma gondii
[4] = library screen at 2 μg/mL, % growth, replicate 1, read-out: Tg_72h_%Growth_Rep1
[5] = library screen at 2 μg/mL, % growth, replicate 2, read-out: Tg_72h_%Growth_Rep2
[6] = P. falciparum, 72 h, screen at 2 μg/mL, replicate 1
[7] = P. falciparum, 72 h, screen at 2 μg/mL, replicate 2
[8] = P. falciparum, 120 h, screen at 2 μg/mL, replicate 1
[9] = P. falciparum, 120 h, screen at 2 μg/mL, replicate 2
[10] = T. gondii, screen at 2 μg/mL, replicate 1
[11] = T. gondii, screen at 2 μg/mL, replicate 2

**Q.** With `C[C@@](O)(/C=C/[C@H]1CC=CC(=O)O1)[C@@H](C[C@@H](O)\C=C/C=C\C=C\CO)OP(=O)(O)O` [Fostriecin] as the compound, how does the activity at 2 µg/mL ([1]; 3D7, 72 h, library screen at 2 μg/mL, 72 h, % growth, replicate 1, read-out: Pf_72h_%Growth_Rep1) read?
**A.** The activity at 2 µg/mL was 29.1%.

**Q.** And the activity at 2 µg/mL ([1]; 3D7, 72 h, library screen at 2 μg/mL, 72 h, % growth, replicate 2, read-out: Pf_72h_%Growth_Rep2)?
**A.** Its activity at 2 µg/mL is 38.8%.

**Q.** And the activity at 2 µg/mL ([2]; 3D7, 120 h, library screen at 2 μg/mL, 120 h, % growth, replicate 1, read-out: Pf_120h_%Growth_Rep1)?
**A.** The activity at 2 µg/mL was 36.9%.

**Q.** What about the activity at 2 µg/mL ([2]; 3D7, 120 h, library screen at 2 μg/mL, 120 h, % growth, replicate 2, read-out: Pf_120h_%Growth_Rep2) of the same compound?
**A.** The activity at 2 µg/mL was 56%.

**Q.** And the percent parasite growth at 2 µg/mL [3, 4]?
**A.** The percent parasite growth at 2 µg/mL was 113%.

**Q.** What about the percent parasite growth at 2 µg/mL [3, 5] of the same compound?
**A.** Its percent parasite growth at 2 µg/mL is 102%.

**Q.** How did the “activity in the screen against P. falciparum” value ([1]; 2 μg/mL, 72 h, active = ≥80 % growth inhibition) turn out when `COc1ccc2c3c(c4cc(OC)c(OC)cc4c2c1)C[C@H]1CCCCN1C3` [Cryptopleurine] was run?
**A.** The value was “activity against both parasites”.

**Q.** What about the IC50 ([1]; 3D7, 72 h treatment, mean ± S.D., n ≥ 3, read-out: IC50 (μM), P. falciparum) of the same compound?
**A.** The IC50 was 0.008 ± 0.003 µM.

**Q.** What about the Pf_72h_%Growth_Rep1 [1, 6] of the same compound?
**A.** Its Pf_72h_%Growth_Rep1 is 8.09%.

**Q.** What about the Pf_72h_%Growth_Rep2 [1, 7] of the same compound?
**A.** The Pf_72h_%Growth_Rep2 was -1.65%.

**Q.** And the “Screen (P. falciparum)” value ([1]; library screen at 2 μg/mL, 3D7, 72 h, DD from the 120 h timepoint)?
**A.** Its value is “A, A”.

**Q.** What about the Pf_120h_%Growth_Rep1 [2, 8] of the same compound?
**A.** The Pf_120h_%Growth_Rep1 was 9.09%.

**Q.** What about the Pf_120h_%Growth_Rep2 [2, 9] of the same compound?
**A.** Its Pf_120h_%Growth_Rep2 is 3.06%.

**Q.** What about the “activity in the screen against T. gondii” value ([3]; 2 μg/mL, active = ≥80 % growth inhibition) of the same compound?
**A.** The value was “activity against both parasites”.

**Q.** And the IC50 ([3]; RH strain, mean ± S.D., n ≥ 3, read-out: IC50 (μM), T. gondii (converted))?
**A.** Its IC50 is 0.011 µM.

**Q.** And the Tg_72h_%Growth_Rep1 [3, 10]?
**A.** Its Tg_72h_%Growth_Rep1 is 6.11%.

**Q.** What about the Tg_72h_%Growth_Rep2 [3, 11] of the same compound?
**A.** Its Tg_72h_%Growth_Rep2 is 2.53%.

**Q.** What about the “Screen (T. gondii)” value ([3]; library screen at 2 μg/mL, RH strain) of the same compound?
**A.** The value was “A, A”.

**Q.** What does the source list for `Cc1cc(O)c(O)c2oc(=O)c3c(O)cc(O)cc3c12` [BIA-H1558]?
**A.** Pf_72h_%Growth_Rep1 ([1]; P. falciparum 3D7, 72 h, library screen at 2 μg/mL, % growth, replicate 1): 87.28%; Pf_72h_%Growth_Rep2 ([1]; P. falciparum 3D7, 72 h, library screen at 2 μg/mL, % growth, replicate 2): 114.26%; Pf_120h_%Growth_Rep1 ([2]; P. falciparum 3D7, 120 h, library screen at 2 μg/mL, % growth, replicate 1): 93.99%; Pf_120h_%Growth_Rep2 ([2]; P. falciparum 3D7, 120 h, library screen at 2 μg/mL, % growth, replicate 2): 107.81%; Tg_72h_%Growth_Rep1 ([3]; T. gondii RH, library screen at 2 μg/mL, % growth, replicate 1): 100.18%; Tg_72h_%Growth_Rep2 ([3]; T. gondii RH, library screen at 2 μg/mL, % growth, replicate 2): 87.83%

**Q.** How did the Pf_72h_%Growth_Rep1 [1, 6] turn out when `CCC(C)CCCCCCC(=O)N[C@H]1[C@H](Oc2c3cc4cc2Oc2ccc(cc2Cl)[C@@H](O[C@@H]2O[C@H](CO)[C@@H](O)[C@H](O)[C@H]2NC(C)=O)[C@@H]2NC(=O)[C@H](NC(=O)[C@@H]4NC(=O)[C@H]4NC(=O)[C@@H](Cc5ccc(c(Cl)c5)O3)NC(=O)[C@H](N)c3ccc(O)c(c3)Oc3cc(O)cc4c3)c3ccc(O)c(c3)-c3c(O[C@H]4O[C@H](CO)[C@@H](O)[C@H](O)[C@@H]4O)cc(O)cc3[C@@H](C(=O)O)NC2=O)O[C@H](CO)[C@@H](O)[C@@H]1O` (stereo partly drawn) [Teicoplanin A2-4] was run?
**A.** Its Pf_72h_%Growth_Rep1 is 81.32%.

**Q.** And the Pf_72h_%Growth_Rep2 [1, 7]?
**A.** The Pf_72h_%Growth_Rep2 was 78.26%.

**Q.** And the Pf_120h_%Growth_Rep1 [2, 8]?
**A.** Its Pf_120h_%Growth_Rep1 is 64.36%.

**Q.** And the Pf_120h_%Growth_Rep2 [2, 9]?
**A.** The Pf_120h_%Growth_Rep2 was 53.42%.

**Q.** What about the Tg_72h_%Growth_Rep1 [3, 10] of the same compound?
**A.** The Tg_72h_%Growth_Rep1 was 112.03%.

**Q.** What about the Tg_72h_%Growth_Rep2 [3, 11] of the same compound?
**A.** The Tg_72h_%Growth_Rep2 was 79.02%.

**Q.** With `Cc1c2c(c(O)c3c(O)cccc13)C(=O)[C@]1(O)C(=O)C(C(N)=O)=C(O)[C@@H](N(C)C)[C@@H]1C2` [Anhydrotetracycline hydrochloride] as the compound, how does the activity at 2 µg/mL ([1]; 3D7, library screen at 2 μg/mL, 72 h, % growth, replicate 1, read-out: Pf_72h_%Growth_Rep1) read?
**A.** Its activity at 2 µg/mL is 77.2%.

**Q.** And the activity at 2 µg/mL ([1]; 3D7, library screen at 2 μg/mL, 72 h, % growth, replicate 2, read-out: Pf_72h_%Growth_Rep2)?
**A.** Its activity at 2 µg/mL is 74%.

**Q.** What about the activity at 2 µg/mL ([2]; 3D7, library screen at 2 μg/mL, 120 h, % growth, replicate 1, read-out: Pf_120h_%Growth_Rep1) of the same compound?
**A.** Its activity at 2 µg/mL is 52.2%.

**Q.** And the activity at 2 µg/mL ([2]; 3D7, library screen at 2 μg/mL, 120 h, % growth, replicate 2, read-out: Pf_120h_%Growth_Rep2)?
**A.** The activity at 2 µg/mL was 57%.

**Q.** What about the percent parasite growth at 2 µg/mL [3, 4] of the same compound?
**A.** The percent parasite growth at 2 µg/mL was 89.6%.

**Q.** What about the percent parasite growth at 2 µg/mL [3, 5] of the same compound?
**A.** The percent parasite growth at 2 µg/mL was 88.3%.

**Q.** For `CC(=O)N[C@H](CO)[C@H](O)c1ccc([N+](=O)[O-])cc1` [Corynecin I], which Pf_72h_%Growth_Rep1 [1, 6] is on record?
**A.** The Pf_72h_%Growth_Rep1 was 83.09%.

**Q.** What about the Pf_72h_%Growth_Rep2 [1, 7] of the same compound?
**A.** Its Pf_72h_%Growth_Rep2 is 83.78%.

**Q.** And the Pf_120h_%Growth_Rep1 [2, 8]?
**A.** The Pf_120h_%Growth_Rep1 was 83.28%.

**Q.** What about the Pf_120h_%Growth_Rep2 [2, 9] of the same compound?
**A.** Its Pf_120h_%Growth_Rep2 is 82.34%.

**Q.** And the Tg_72h_%Growth_Rep1 [3, 10]?
**A.** Its Tg_72h_%Growth_Rep1 is 123.69%.

**Q.** What about the Tg_72h_%Growth_Rep2 [3, 11] of the same compound?
**A.** The Tg_72h_%Growth_Rep2 was 87.57%.

**Q.** How did the activity at 2 µg/mL ([1]; 3D7, P. falciparum, 72 h, screen at 2 μg/mL, replicate 1, read-out: Pf_72h_%Growth_Rep1) turn out when `CC[C@H]1OC(=O)[C@H](C)[C@@H](O[C@H]2C[C@@](C)(OC)[C@@H](O)[C@H](C)O2)[C@H](C)[C@@H](O[C@@H]2O[C@H](C)C[C@H](N(C)C)[C@H]2O)[C@](C)(OC)C[C@@H](C)C(=O)[C@H](C)[C@@H](O)[C@]1(C)O` [Clarithromycin] was run?
**A.** The activity at 2 µg/mL was 74.8%.

**Q.** What about the activity at 2 µg/mL ([1]; 3D7, P. falciparum, 72 h, screen at 2 μg/mL, replicate 2, read-out: Pf_72h_%Growth_Rep2) of the same compound?
**A.** Its activity at 2 µg/mL is 62.6%.

**Q.** And the activity at 2 µg/mL ([2]; 3D7, P. falciparum, 120 h, screen at 2 μg/mL, replicate 1, read-out: Pf_120h_%Growth_Rep1)?
**A.** Its activity at 2 µg/mL is 31.2%.

**Q.** What about the activity at 2 µg/mL ([2]; 3D7, P. falciparum, 120 h, screen at 2 μg/mL, replicate 2, read-out: Pf_120h_%Growth_Rep2) of the same compound?
**A.** Its activity at 2 µg/mL is 16.9%.

**Q.** What about the percent parasite growth at 2 µg/mL ([3]; T. gondii, screen at 2 μg/mL, replicate 1, read-out: Tg_72h_%Growth_Rep1) of the same compound?
**A.** Its percent parasite growth at 2 µg/mL is 40.9%.

**Q.** And the percent parasite growth at 2 µg/mL ([3]; T. gondii, screen at 2 μg/mL, replicate 2, read-out: Tg_72h_%Growth_Rep2)?
**A.** The percent parasite growth at 2 µg/mL was 40.8%.

**Q.** For `COC1=C(N)C(=O)c2nc(-c3nc(C(=O)O)c(C)c(-c4cccc(OC)c4O)c3N)ccc2C1=O` [Desmethoxystreptonigrin, 10'-], which Pf_72h_%Growth_Rep1 ([1]; library screen at 2 μg/mL, 72 h, % growth, replicate 1) is on record?
**A.** The Pf_72h_%Growth_Rep1 was 2.87%.

**Q.** And the Pf_72h_%Growth_Rep2 ([1]; library screen at 2 μg/mL, 72 h, % growth, replicate 2)?
**A.** Its Pf_72h_%Growth_Rep2 is 4.81%.

**Q.** What about the Pf_120h_%Growth_Rep1 ([2]; library screen at 2 μg/mL, 120 h, % growth, replicate 1) of the same compound?
**A.** The Pf_120h_%Growth_Rep1 was 0.15%.

**Q.** What about the Pf_120h_%Growth_Rep2 ([2]; library screen at 2 μg/mL, 120 h, % growth, replicate 2) of the same compound?
**A.** Its Pf_120h_%Growth_Rep2 is 8.14%.

**Q.** What about the Tg_72h_%Growth_Rep1 ([3]; library screen at 2 μg/mL, % growth, replicate 1) of the same compound?
**A.** Its Tg_72h_%Growth_Rep1 is 4.18%.

**Q.** What about the Tg_72h_%Growth_Rep2 ([3]; library screen at 2 μg/mL, % growth, replicate 2) of the same compound?
**A.** Its Tg_72h_%Growth_Rep2 is 4.20%.

**Q.** Which results are given for `CCCCCCCCCCCCCC(=O)N[C@H]1CCOC1=O` [Tetradecanoyl-L-homoserine lactone]?
**A.** Pf_72h_%Growth_Rep1 [1, 6]: 70.00%; Pf_72h_%Growth_Rep2 [1, 7]: 83.15%; Pf_120h_%Growth_Rep1 [2, 8]: 140.07%; Pf_120h_%Growth_Rep2 [2, 9]: 68.40%; Tg_72h_%Growth_Rep1 [3, 10]: 91.68%; Tg_72h_%Growth_Rep2 [3, 11]: 91.92%

— paper PMC12396409, “Screening and hit evaluation of a microbial metabolite library against the pathogenic Plasmodium falciparum and Toxoplasma gondii parasites” (International Journal for Parasitology: Drugs and Drug …, 2025)
